Experimental findings from ChEMBL document CHEMBL1201862, “PubChem BioAssay data set” (2004) are described below.

Test systems include A549; ACHN; CAKI-1; CCRF-CEM; DLD-1; DMS-273; HCT-116; HT-29; KM12; LXFL 529; NCI-H226; SK-MEL-28; SK-MEL-2; SNB-19; TK-10; BT-549; DU-145; MCF7; MDA-N; PC-3.
Holding throughout (assay): NCI-60 cell line screen, 48 h

SMILES strings stand for the structures.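 Dose response: 5 concentrations. Exposure: 48 h. Format: 96-well plates. Endpoint: linear interpolation; highest concentration if not reached. GI50 is the concentration that inhibits growth by half.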 Calls of active or inactive are those of the source. Rule as the data show it: active = GI50 up to about 1.1 µM and inactive = higher.

With `O=C(CC1(O)C(=O)Nc2c(Cl)ccc(Cl)c21)c1ccc2ccccc2c1` (stereo not given), the GI50 with A549 was 18.3 µM (inactive); in the experiment with ACHN it was 12.9 µM (inactive); with CAKI-1, 4.46 µM (inactive); in the experiment with CCRF-CEM, 3.62 µM (inactive); in the experiment with DLD-1, 17.9 µM (inactive); in the experiment on DMS-273 it was 5.58 µM (inactive). In addition, the GI50 in the experiment on HCT-116 was 11.7 µM (inactive); in the experiment with HT-29, 2.43 µM (inactive); with KM12, 4.69 µM (inactive); in the experiment on LXFL 529 it was 10.2 µM (inactive); in the experiment on NCI-H226, 19.2 µM (inactive); with SK-MEL-28, 14.8 µM (inactive). Also, the GI50 with SK-MEL-2 was 11.6 µM (inactive); in the experiment on SNB-19 it was 16.1 µM (inactive); in the experiment with TK-10 it was 16.2 µM (inactive).

Consider `N#CCC(=O)NC1C2CC3CC(C2)CC1C3` (stereo not given), for which the GI50 was 34 µM (inactive) with A549; 19.1 µM (inactive) in the experiment with ACHN; 18.6 µM (inactive) in the experiment with CAKI-1; 18.7 µM (inactive) in the experiment with CCRF-CEM; 20.2 µM (inactive) with DLD-1; 21.6 µM (inactive) in the experiment on DMS-273. For the same molecule, the GI50 in the experiment on HCT-116 is 15.2 µM (inactive); with HT-29, 18.5 µM (inactive); with KM12, 17.7 µM (inactive); in the experiment with LXFL 529 it was 28.1 µM (inactive); with NCI-H226, 22.2 µM (inactive); in the experiment on SK-MEL-28 it was 19.1 µM (inactive). Moreover, the GI50 in the experiment with SK-MEL-2 was 19.5 µM (inactive); with SNB-19, 17.3 µM (inactive); in the experiment with TK-10, 19.4 µM (inactive).

For the molecule `COc1cc2c[n+](C)c3c4ccccc4ccc3c2cc1OC.COc1cc2cnc3c4ccccc4ccc3c2cc1OC`, the GI50 in the experiment on A549 was 2.54 µM (inactive); in the experiment with ACHN, 73.1 µM (inactive); in the experiment on BT-549, 6.85 µM (inactive); in the experiment with CAKI-1, 58.6 µM (inactive); in the experiment on CCRF-CEM it was 6.47 µM (inactive); in the experiment on DLD-1, 31.3 µM (inactive). In addition, the GI50 in the experiment on DMS-273 is 2.88 µM (inactive); in the experiment with DU-145, 5.68 µM (inactive); with HCT-116, 7.83 µM (inactive); in the experiment on HT-29, 7.59 µM (inactive); in the experiment with KM12, 0.859 µM (active); in the experiment on LXFL 529 it was 2.21 µM (inactive). Moreover, the GI50 in the experiment on MCF7 is 1.79 µM (inactive); in the experiment on MDA-N, 7.05 µM (inactive); in the experiment on NCI-H226, 13.1 µM (inactive); in the experiment with PC-3 it was 2.84 µM (inactive); with SK-MEL-28, 5.5 µM (inactive); in the experiment with SK-MEL-2, 9.82 µM (inactive). Also, the GI50 in the experiment with SNB-19 was 3.94 µM (inactive); in the experiment on TK-10 it was 26.6 µM (inactive).

Consider `CC(=O)NC(CCCCNC(=O)N(C)N=O)C(=O)NCc1ccccc1` (stereo not given), for which the GI50 in the experiment on A549, in the experiment with ACHN, with CAKI-1, in the experiment with CCRF-CEM, in the experiment with DLD-1 and in the experiment with DMS-273 was > 100 µM (inactive) each time. Besides, the GI50 in the experiment on HCT-116, in the experiment with HT-29, in the experiment on KM12, in the experiment on LXFL 529, in the experiment on NCI-H226 and with SK-MEL-28 was > 100 µM (inactive) in each case. Also, the GI50 in the experiment on SK-MEL-2, in the experiment on SNB-19 and in the experiment on TK-10 was > 100 µM (inactive) throughout.

Regarding `COC(=O)C(Cc1nc2ccc(Cl)cc2nc1O)C(=O)C(=O)Nc1cc(C)ccc1C` (stereo not given), the GI50 with A549, in the experiment on ACHN, in the experiment on CAKI-1, in the experiment on CCRF-CEM, in the experiment with DLD-1 and in the experiment with DMS-273 was > 100 µM (inactive) each time. The GI50 in the experiment on HCT-116, in the experiment on HT-29, with KM12, with LXFL 529, with NCI-H226 and in the experiment on SK-MEL-28 was > 100 µM (inactive) in each case. The GI50 with SK-MEL-2, in the experiment on SNB-19 and in the experiment with TK-10 was > 100 µM (inactive) each time.
